The source made the active and inactive calls.
What was measured:
[1] = P. falciparum 3D7-ScDHODH growth inhibitors, dose response, SYBR Green, dry powder samples (AID 1159570); type: functional, cell-based;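 further: parasite growth measured after 72 hours of compound exposure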
[2] = P. falciparum Dd2 growth inhibitors, dose response, SYBR Green, cherry-picked samples (AID 1159567); type: functional, cell-based
[3] = P. falciparum Dd2 growth inhibitors, dose response, SYBR Green, dry powder samples (AID 1159566); type: functional, cell-based;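 further: potency for growth inhibition with lower SYBR green DNA signal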
[4] = HepG2 cell cytotoxicity, dose response, cytotoxicity control, cherry-picked samples (AID 1159577); type: functional, cell-based
[5] = P. falciparum ATP4 D1247Y mutant growth inhibitors, dose response, NITD609-resistant line, SYBR Green, dry powder (AID 1159571); type: functional, cell-based;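 further: parasites synchronized at ring stage by sorbitol before testing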
[6] = inhibitors of Vif binding to APOBEC3G peptide, primary screen, biochemical, TR-FRET, GST-Vif 1-94, biotin-A3G peptide, dose response retest (AID 1117319); type: functional;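 further: TR-FRET signal of purified GST-Vif binding a biotinylated A3G peptide; inhibitors lower the FRET signal by blocking Vif and A3G binding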
Coagulation factor XII = target: T1, Coagulation factor XII (Homo sapiens, UniProt P00748); type: functional;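 further: activated factor XIIa alpha cleaving a fluorogenic AMC peptide substrate; inhibitor potency from loss of enzyme activity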
T1 sequence (P00748 whole entry): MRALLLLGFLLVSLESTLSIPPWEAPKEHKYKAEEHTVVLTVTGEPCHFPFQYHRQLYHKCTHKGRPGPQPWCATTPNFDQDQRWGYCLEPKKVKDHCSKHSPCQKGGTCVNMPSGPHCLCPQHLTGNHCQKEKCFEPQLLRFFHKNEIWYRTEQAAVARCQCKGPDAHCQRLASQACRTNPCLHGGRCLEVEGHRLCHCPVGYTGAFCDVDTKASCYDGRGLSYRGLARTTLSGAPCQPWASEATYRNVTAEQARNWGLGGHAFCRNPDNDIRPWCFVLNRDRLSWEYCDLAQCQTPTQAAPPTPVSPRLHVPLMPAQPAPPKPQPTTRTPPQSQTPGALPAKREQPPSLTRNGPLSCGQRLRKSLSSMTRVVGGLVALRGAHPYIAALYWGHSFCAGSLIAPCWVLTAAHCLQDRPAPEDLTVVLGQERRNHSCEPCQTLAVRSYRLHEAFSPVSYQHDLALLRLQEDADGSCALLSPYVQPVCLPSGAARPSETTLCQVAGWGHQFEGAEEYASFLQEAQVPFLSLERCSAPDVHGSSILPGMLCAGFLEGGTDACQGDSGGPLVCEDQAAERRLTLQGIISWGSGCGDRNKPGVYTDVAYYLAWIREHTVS

[7] = target: T2, Epstein-Barr nuclear antigen 1 (Epstein-Barr virus (strain B95-8) (HHV-4) (Human herpesvirus 4), UniProt P03211); experiment: EBNA-1 inhibitors, dose response, biochemical, fluorescence polarization, 1536-well (AID 2381); design: species or system human gammaherpesvirus 4;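 further: fluorescence polarization of a Cy5 DNA probe bound by EBNA-1 protein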
T2 sequence (P03211 whole entry): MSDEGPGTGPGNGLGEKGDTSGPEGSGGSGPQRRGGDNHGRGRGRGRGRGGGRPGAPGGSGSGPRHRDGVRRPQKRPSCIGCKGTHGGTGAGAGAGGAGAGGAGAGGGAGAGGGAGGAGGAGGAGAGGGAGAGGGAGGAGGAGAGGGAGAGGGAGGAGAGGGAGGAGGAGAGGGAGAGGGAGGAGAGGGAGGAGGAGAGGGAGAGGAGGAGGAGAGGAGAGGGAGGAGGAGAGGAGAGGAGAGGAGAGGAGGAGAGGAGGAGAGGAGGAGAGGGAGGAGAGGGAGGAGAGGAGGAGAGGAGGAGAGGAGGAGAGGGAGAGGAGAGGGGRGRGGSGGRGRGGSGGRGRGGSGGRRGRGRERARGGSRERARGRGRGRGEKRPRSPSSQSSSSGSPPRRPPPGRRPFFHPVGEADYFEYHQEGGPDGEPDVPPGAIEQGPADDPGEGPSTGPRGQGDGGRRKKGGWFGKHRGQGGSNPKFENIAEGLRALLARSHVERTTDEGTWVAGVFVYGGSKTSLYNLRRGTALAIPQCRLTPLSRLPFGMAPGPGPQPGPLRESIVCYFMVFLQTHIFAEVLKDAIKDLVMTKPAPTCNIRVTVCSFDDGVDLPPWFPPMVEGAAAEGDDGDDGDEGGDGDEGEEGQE

[8] = target: T3, Lytic switch protein BZLF1 (Epstein-Barr virus (strain B95-8) (HHV-4) (Human herpesvirus 4), UniProt P03206); experiment: EBV ZTA inhibitors, dose response, counter-screen for EBNA-1 inhibitor project, biochemical, fluorescence polarization, Epstein-Barr virus, 1536-well (AID 2377); design: species or system human gammaherpesvirus 4;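 further: fluorescence polarization of Cy5-labelled ZRE DNA probe bound by purified Zta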
T3 sequence (P03206 whole entry): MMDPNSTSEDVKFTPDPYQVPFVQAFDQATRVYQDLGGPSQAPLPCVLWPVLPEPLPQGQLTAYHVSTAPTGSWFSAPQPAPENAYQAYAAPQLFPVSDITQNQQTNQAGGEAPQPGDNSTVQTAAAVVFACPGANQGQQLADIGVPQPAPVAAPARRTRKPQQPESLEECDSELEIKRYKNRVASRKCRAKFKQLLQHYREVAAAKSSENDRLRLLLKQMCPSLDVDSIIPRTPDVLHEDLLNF

Cytochrome P450 2C19 = Cytochrome P450 2C19 (Homo sapiens, UniProt P33261); experiment: Cytochrome panel assay with activity outcomes. Panel member name: p450-cyp2c19 Compounds with AC50 equal or less than 10 uM are considered active; type: functional; details: read-out: AC50
[9] = Artemis endonuclease inhibitor potency, dose response, biochemical, fluorescence intensity (AID 720701); type: functional;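 further: Artemis endonuclease enzyme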
Cytochrome P450 1A2 = target: T4, Cytochrome P450 1A2 (Homo sapiens, UniProt P05177);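 further: PubChem cytochrome P450 panel assay, CYP1A2 panel member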
T4 sequence (P05177 whole entry): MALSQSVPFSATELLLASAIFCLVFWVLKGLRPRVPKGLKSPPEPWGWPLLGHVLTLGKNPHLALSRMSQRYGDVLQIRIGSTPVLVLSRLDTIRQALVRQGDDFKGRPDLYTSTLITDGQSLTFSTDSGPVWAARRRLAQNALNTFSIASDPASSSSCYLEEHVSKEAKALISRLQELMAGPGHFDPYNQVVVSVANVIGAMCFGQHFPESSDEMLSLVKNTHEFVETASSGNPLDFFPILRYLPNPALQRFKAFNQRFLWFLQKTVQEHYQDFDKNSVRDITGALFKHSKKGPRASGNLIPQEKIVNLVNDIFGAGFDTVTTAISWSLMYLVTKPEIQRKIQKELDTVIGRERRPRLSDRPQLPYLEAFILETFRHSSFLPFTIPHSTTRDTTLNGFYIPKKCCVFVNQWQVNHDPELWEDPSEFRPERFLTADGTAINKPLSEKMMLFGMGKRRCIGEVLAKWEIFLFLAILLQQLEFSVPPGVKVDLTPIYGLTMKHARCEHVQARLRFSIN

[10] = M. tuberculosis H37Rv growth inhibitors, H37Rv strain (AID 1626); type: functional
H9c2 = experiment: cells; type: functional, cell-based; details: Rattus norvegicus, H9c2, Myocardium
[11] = Vero cell cytotoxicity, dose response, cytotoxicity control for Vif-APOBEC3G degradation inhibitor project, Vero cells (AID 1117358); type: functional; details: Human immunodeficiency virus 1, Vero
[12] = target: Luciferin 4-monooxygenase (Photinus pyralis, UniProt P08659); experiment: firefly luciferase enzyme inhibitors, dose response, biochemical, luminescence (AID 1891)
[13] = Luminescence Cell-Based Dose Confirmation HTS to Identify Inhibitors of Platelet Dense Granule Release. [Related pubchem assays: 1663 (Primary HTS), 1678 (Summary of Project)]; type: functional
[14] = target: T5, Heat shock factor protein 1 (Mus musculus, UniProt P38532); experiment: inhibition of MG132-induced HSE-luciferase signal, confirmation, cell-based, NIH3T3, luminescence, dose retest (AID 2382); type: functional;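 further: NIH3T3 fibroblasts with HSF1-driven luciferase reporter stressed by proteasome inhibitor MG132; luminescence from HSF1-driven luciferase expression after 8 hours of MG132 stress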
T5 sequence (P38532 whole entry): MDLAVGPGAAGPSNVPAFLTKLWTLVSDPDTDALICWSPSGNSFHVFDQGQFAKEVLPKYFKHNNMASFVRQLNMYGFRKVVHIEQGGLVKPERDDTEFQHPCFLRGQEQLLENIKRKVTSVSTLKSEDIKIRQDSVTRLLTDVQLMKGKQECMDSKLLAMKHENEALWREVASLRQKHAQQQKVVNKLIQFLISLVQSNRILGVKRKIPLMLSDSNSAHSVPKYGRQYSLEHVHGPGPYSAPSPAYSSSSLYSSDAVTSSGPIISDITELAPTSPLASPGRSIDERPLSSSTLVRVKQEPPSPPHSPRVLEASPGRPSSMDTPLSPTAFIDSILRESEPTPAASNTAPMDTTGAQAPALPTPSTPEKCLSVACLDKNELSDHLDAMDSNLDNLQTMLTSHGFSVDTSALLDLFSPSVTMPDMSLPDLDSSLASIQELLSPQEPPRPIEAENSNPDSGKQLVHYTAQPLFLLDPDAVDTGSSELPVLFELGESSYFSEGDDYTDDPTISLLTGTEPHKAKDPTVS

Vero [15] = experiment: host cell cytotoxicity of antiviral hits, dose response, cytotoxicity control for West Nile virus antiviral project, secondary assay (AID 1650); type: functional; details: Chlorocebus sabaeus
[16] = inhibitors of intracellular T. cruzi replication, confirmation, NIH3T3 host cells, beta-gal luminescence (AID 2044); type: functional, cell-based;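 further: intracellular parasites grown in NIH/3T3 mouse fibroblasts as host cells; luminescent beta-galactosidase reporter signal from transgenic T. cruzi replicating inside host cells; inhibitors lower the luminescence signal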
Vero [17] = experiment: West Nile virus antiviral activity, cell-based, CPE readout (AID 1621); type: functional; details: Chlorocebus sabaeus
[18] = target: Heat shock protein HSP 90-alpha (Homo sapiens, UniProt P07900); type: functional, organism-based
[19] = Shn3 3'UTR reporter inhibitors, dose response, cell-based, Clone20 osteoblasts, firefly luciferase, cherry-picked (AID 624132); type: functional;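 further: firefly luciferase luminescence from reporter carrying the Shn3 3'UTR in osteoblasts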
[20] = HepG2 cell cytotoxicity, dose response, cytotoxicity control for Shn3 inhibitor project, CellTiter-Glo, cherry-picked (AID 624134); type: functional, cell-based
[21] = control 3'UTR Renilla luciferase suppression, dose response, counter-screen for Shn3 inhibitor project, cell-based, Clone20-Shn3RL, cherry-picked (AID 624133); type: functional
[22] = target: T6, COUP transcription factor 2 (Homo sapiens, UniProt P24468); experiment: Luminescence-based cell-based high throughput dose response assay to identify inhibitors of COUP-TFII (NR2F2).; type: functional;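 further: HEK293 cells transiently cotransfected with COUP-TFII expression vector and reporter; luciferase reporter luminescence driven by COUP-TFII from the pX2-168 reporter plasmid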
T6 sequence (P24468 whole entry): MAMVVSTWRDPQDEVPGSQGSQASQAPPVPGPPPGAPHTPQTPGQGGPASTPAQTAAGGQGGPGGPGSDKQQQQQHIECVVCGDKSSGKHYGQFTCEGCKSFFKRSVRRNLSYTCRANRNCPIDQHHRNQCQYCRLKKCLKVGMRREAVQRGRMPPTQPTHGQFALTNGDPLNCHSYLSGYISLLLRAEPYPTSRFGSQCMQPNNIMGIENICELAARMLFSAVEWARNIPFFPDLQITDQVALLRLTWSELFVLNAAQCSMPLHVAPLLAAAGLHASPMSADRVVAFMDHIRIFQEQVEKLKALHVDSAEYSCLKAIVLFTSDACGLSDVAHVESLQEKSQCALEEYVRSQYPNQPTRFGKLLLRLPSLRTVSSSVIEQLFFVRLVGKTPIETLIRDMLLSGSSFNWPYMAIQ

[23] = inhibitors of PGC1a acetylation in cells, dose response, cell-based, cherry-picked samples (AID 720514); type: functional;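 further: potency may reflect raised or lowered acetylation signal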

Sequence of Luciferin 4-monooxygenase (P08659 whole entry): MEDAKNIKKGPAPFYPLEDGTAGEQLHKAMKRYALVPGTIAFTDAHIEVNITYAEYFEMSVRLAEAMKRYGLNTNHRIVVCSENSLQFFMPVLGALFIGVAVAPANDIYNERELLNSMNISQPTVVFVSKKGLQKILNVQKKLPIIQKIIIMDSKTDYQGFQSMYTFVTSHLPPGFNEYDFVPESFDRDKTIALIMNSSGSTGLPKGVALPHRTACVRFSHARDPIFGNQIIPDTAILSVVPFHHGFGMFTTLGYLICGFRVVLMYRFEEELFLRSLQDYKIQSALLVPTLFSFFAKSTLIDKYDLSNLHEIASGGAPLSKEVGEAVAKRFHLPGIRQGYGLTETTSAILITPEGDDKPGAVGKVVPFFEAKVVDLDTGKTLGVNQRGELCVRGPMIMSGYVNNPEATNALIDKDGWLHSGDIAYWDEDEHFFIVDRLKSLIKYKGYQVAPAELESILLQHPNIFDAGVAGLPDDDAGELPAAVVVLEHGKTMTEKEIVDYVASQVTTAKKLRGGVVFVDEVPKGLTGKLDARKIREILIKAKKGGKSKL
Sequence of Cytochrome P450 2C19 (P33261 whole entry): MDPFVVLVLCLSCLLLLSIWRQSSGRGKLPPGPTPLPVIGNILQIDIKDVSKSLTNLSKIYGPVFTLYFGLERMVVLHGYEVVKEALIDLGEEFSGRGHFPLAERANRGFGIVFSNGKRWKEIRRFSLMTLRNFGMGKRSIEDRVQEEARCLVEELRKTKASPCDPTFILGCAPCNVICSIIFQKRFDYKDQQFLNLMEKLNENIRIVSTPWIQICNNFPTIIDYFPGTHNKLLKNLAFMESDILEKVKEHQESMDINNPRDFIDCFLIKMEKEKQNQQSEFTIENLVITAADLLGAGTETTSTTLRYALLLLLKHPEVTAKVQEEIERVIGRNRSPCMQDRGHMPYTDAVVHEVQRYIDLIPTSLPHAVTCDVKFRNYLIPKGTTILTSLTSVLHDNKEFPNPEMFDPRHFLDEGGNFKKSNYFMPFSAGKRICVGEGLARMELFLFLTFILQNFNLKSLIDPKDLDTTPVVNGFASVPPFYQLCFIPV

## COc1ccc(NC(=O)N(C)C[C@@H]2Oc3c(NC(=O)c4nc5ccccc5s4)cccc3C(=O)N([C@@H](C)CO)C[C@H]2C)cc1
[1]
  AC50: 0.499 µM (active)
[2]
  AC50: 1.96 µM (active)
[3]
  AC50: 1.3 µM (active)
[4]
  AC50: > 39 µM (inactive)
[5]
  AC50: 0.606 µM (active)

## CC(OC(=O)/C=C/c1ccco1)C(=O)NC1CCCCC1 (configuration not stated)
[6]
  IC50: > 100 µM (active)

## O=C1CN(C(=O)COC(=O)c2oc3ccccc3c2COc2ccccc2)c2ccccc2N1
Coagulation factor XII
  IC50: > 50 µM (inactive)
[6]
  IC50: > 100 µM (active)

## Cc1ccc(Nc2nc(NCC3CCCO3)nc(N)c2[N+](=O)[O-])cc1C (configuration not stated)
[7]
  IC50: 6.09 µM (active)
[8]
  IC50: > 111 µM (not active)

## O=C(N/N=C\c1ccc(-c2ccccc2[N+](=O)[O-])o1)C1COc2cc3ccccc3cc2O1 (configuration not stated)
Cytochrome P450 2C19
  AC50: 1.12 µM (inconclusive)
[9]
  IC50: > 20 µM (inactive)
Cytochrome P450 1A2
  AC50: 3.55 µM (inconclusive)

## COc1ccc2c3c(n(C)c2c1)[C@@H](CO)N(C(=O)C1CCC1)CC31CN(C(=O)Nc2cccc(F)c2)C1
[1]
  AC50: 0.515 µM (active)
[2]
  AC50: 2.35 µM (active)
[3]
  AC50: 0.779 µM (active)
[5]
  AC50: 0.535 µM (active)

## CCCc1nn(C)c(C(=O)Nc2ccc(CC)cc2)c1Cl
[10]
  IC50: > 100 µM (active)

## Cc1nc(NC(=O)c2cc3c(C)nn(-c4ccccc4)c3s2)sc1C(=O)Nc1ccccc1
H9c2
  IC50: > 79 µM (inactive)
[9]
  IC50: 1.22 µM (active)

## CCc1nnc(NC(=O)c2ccc(S(=O)(=O)N(CC(C)C)CC(C)C)cc2)o1
[11]
  CC50: > 40 µM (active)

## COc1ccccc1NC(=O)c1cc2ccc(O)cc2o/c1=N\O
[12]
  EC50: 1.03 µM (active)
[13]
  EC50: 6.14 µM (active)
[6]
  IC50: > 100 µM (active)
[11]
  CC50: > 40 µM (active)

## CCOc1cc(C(=O)OCC(=O)c2c(N)n(C)c(=O)n(C)c2=O)cc(OCC)c1OCC
[7]
  IC50: 19.3 µM (not active)
[8]
  IC50: > 111 µM (not active)

## C[C@H]1C[C@@H](C)C(=O)[C@@H]([C@H](O)CC2CC(=O)NC(=O)C2)C1
[14]
  EC50: 0.66 µM (active)
Vero [15]
  CC50: 0.96 µM (active)
[16]
  EC50: < 0.1 µM (active)
Vero [17]
  IC50: 0.43 µM (active)
[18]
  AC50: < 0.195 µM (active)
[19]
  AC50: 0.307 µM (active)
[20]
  AC50: > 70 µM (inactive)
[21]
  AC50: 2.18 µM (active)
[22]
  IC50: 1.03 µM (active)
[23]
  AC50: 4.92 µM (active)
cells
  EC50: < 0.004 µM (active)

## N#C[C@@H]1[C@H](c2ccc(C#CC3CCCCC3)cc2)[C@@H](CO)N1C(=O)Nc1ccc(F)cc1
[2]
  AC50: 7.33 µM (active)
[4]
  AC50: 14 µM (active)

## COC(=O)c1c(NC(=O)C(Cl)Cl)sc2c1C(C(=O)OC)CC2 (configuration not stated)
Vero [15]
  CC50: 34.8 µM (active)
Vero [17]
  IC50: 27.8 µM (active)

## CCOC(=O)c1ccc(NC(=O)CCc2c(C)nc3ncnn3c2C)cc1
[10]
  IC50: > 100 µM (active)

## COc1ccc(C(=O)Nc2ccc(O)c3c(=O)cc(-c4cccc(Cl)c4)oc23)cc1
Vero [15]
  CC50: 2.74 µM (active)
Vero [17]
  IC50: > 100 µM (active)

## CN1C(=O)N(C)C2(c3ccccc3)Nn3c(s/c(=C/c4ccco4)c3=O)=NC12c1ccccc1 (configuration not stated)
[7]
  IC50: > 5.47 µM (active)
[8]
  IC50: > 111 µM (not active)
